Test results reported in PubChem BioAssay (NCI).
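Abbreviation: GI50, concentration required for 50% inhibition of growth. TGI marks complete inhibition of growth.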

What was measured:
Test in all cases: growth of human tumour cells (NCI), 384-well format
HCT-116 colon = test system: HCT-116 colon
RPMI-8226 leukemia = test system: RPMI-8226 leukemia
NCI/ADR-RES ovarian = test system: NCI/ADR-RES ovarian
MDA-MB-231 breast = test system: MDA-MB-231 breast
SNB-19 CNS = test system: SNB-19 CNS
HS 578T breast = test system: HS 578T breast
T-47D breast = test system: T-47D breast
BT-549 breast = test system: BT-549 breast
UACC-257 melanoma = test system: UACC-257 melanoma
IGROV1 ovarian = test system: IGROV1 ovarian
M14 melanoma = test system: M14 melanoma
SK-MEL-2 melanoma = test system: SK-MEL-2 melanoma
OVCAR-8 ovarian = test system: OVCAR-8 ovarian
SNB-75 CNS = test system: SNB-75 CNS
SK-MEL-28 melanoma = test system: SK-MEL-28 melanoma
MDA-MB-468 breast = test system: MDA-MB-468 breast
OVCAR-3 ovarian = test system: OVCAR-3 ovarian
SF-539 CNS = test system: SF-539 CNS
SK-OV-3 ovarian = test system: SK-OV-3 ovarian
786-0 renal = test system: 786-0 renal
SW-620 colon = test system: SW-620 colon
MDA-MB-435 melanoma = test system: MDA-MB-435 melanoma
HCT-15 colon = test system: HCT-15 colon
EKVX NSCLC = test system: EKVX NSCLC
ACHN renal = test system: ACHN renal
CAKI-1 renal = test system: CAKI-1 renal
K-562 leukemia = test system: K-562 leukemia
NCI-H522 lung = test system: NCI-H522 lung
HOP-92 NSCLC = test system: HOP-92 NSCLC
UACC-62 melanoma = test system: UACC-62 melanoma
SK-MEL-5 melanoma = test system: SK-MEL-5 melanoma
HL-60(TB) leukemia = test system: HL-60(TB) leukemia
DU-145 prostate = test system: DU-145 prostate
COLO 205 colon = test system: COLO 205 colon
NCI-H226 lung = test system: NCI-H226 lung
TK-10 renal = test system: TK-10 renal
NCI-H322M lung = test system: NCI-H322M lung
UO-31 renal = test system: UO-31 renal
MALME-3M melanoma = test system: MALME-3M melanoma
SF-268 CNS = test system: SF-268 CNS
A498 renal = test system: A498 renal
HOP-62 NSCLC = test system: HOP-62 NSCLC
PC-3 prostate = test system: PC-3 prostate
MOLT-4 leukemia = test system: MOLT-4 leukemia
SR leukemia = test system: SR leukemia
CCRF-CEM leukemia = test system: CCRF-CEM leukemia
MCF7 breast = test system: MCF7 breast
SF-295 CNS = test system: SF-295 CNS
HT29 colon = test system: HT29 colon
HCC-2998 colon = test system: HCC-2998 colon
NCI-H23 lung = test system: NCI-H23 lung
U251 glioblastoma = test system: U251 glioblastoma
SN12C renal = test system: SN12C renal
KM12 colon = test system: KM12 colon
OVCAR-5 ovarian = test system: OVCAR-5 ovarian
RXF 393 renal = test system: RXF 393 renal
OVCAR-4 ovarian = test system: OVCAR-4 ovarian
LOX IMVI melanoma = test system: LOX IMVI melanoma
A549 NSCLC = test system: A549 NSCLC
NCI-H460 NSCLC = test system: NCI-H460 NSCLC

CC(=O)Nc1cccc(-n2c(=O)n(C3CC3)c(=O)c3c(Nc4ccc(I)cc4F)n(C)c(=O)c(C)c32)c1
GI50 (HCT-116 colon): < 10 nM
TGI (HCT-116 colon): 78.7 nM
GI50 (RPMI-8226 leukemia): 423 nM
TGI (RPMI-8226 leukemia): 4.84 µM
GI50 (NCI/ADR-RES ovarian): 1320 nM
TGI (NCI/ADR-RES ovarian): 8.35 µM
GI50 (MDA-MB-231 breast): < 48.9 nM
TGI (MDA-MB-231 breast): 1990 nM
TGI (SNB-19 CNS): > 62.1 µM
GI50 (HS 578T breast): 1500 nM
TGI (HS 578T breast): 24.9 µM
GI50 (T-47D breast): > 25.1 µM
TGI (T-47D breast): > 100 µM
GI50 (BT-549 breast): 846 nM
TGI (BT-549 breast): 18.3 µM
GI50 (UACC-257 melanoma): < 10 nM
TGI (UACC-257 melanoma): < 10 nM
GI50 (IGROV1 ovarian): < 10 nM
TGI (IGROV1 ovarian): 5.48 µM
GI50 (M14 melanoma): < 10 nM
TGI (M14 melanoma): < 10 nM
GI50 (SK-MEL-2 melanoma): < 10 nM
TGI (SK-MEL-2 melanoma): < 10 nM
GI50 (OVCAR-8 ovarian): 2880 nM
TGI (OVCAR-8 ovarian): 36.1 µM
GI50 (SNB-75 CNS): 115 nM
TGI (SNB-75 CNS): 5.76 µM
GI50 (SK-MEL-28 melanoma): < 10 nM
TGI (SK-MEL-28 melanoma): < 10 nM
GI50 (MDA-MB-468 breast): 5.03 µM
TGI (MDA-MB-468 breast): 14.2 µM
GI50 (OVCAR-3 ovarian): 4.65 µM
TGI (OVCAR-3 ovarian): 21.4 µM
GI50 (SF-539 CNS): 81.9 nM
TGI (SF-539 CNS): 11 µM
TGI (SK-OV-3 ovarian): > 41.1 µM
GI50 ([…]-0 renal): 1200 nM
TGI (786-0 renal): 20.1 µM
GI50 (SW-620 colon): < 10 nM
TGI (SW-620 colon): > 36 µM
GI50 (MDA-MB-435 melanoma): < 10 nM
TGI (MDA-MB-435 melanoma): 16.5 µM
GI50 (HCT-15 colon): 238 nM
TGI (HCT-15 colon): 14.7 µM
GI50 (EKVX NSCLC): 309 nM
TGI (EKVX NSCLC): 23.7 µM
GI50 (ACHN renal): 576 nM
TGI (ACHN renal): 20.4 µM
GI50 (CAKI-1 renal): < 26 nM
TGI (CAKI-1 renal): 12 µM
GI50 (K-562 leukemia): 26.5 nM
TGI (K-562 leukemia): 11.8 µM
GI50 (NCI-H522 lung): 4.33 µM
TGI (NCI-H522 lung): 37.4 µM
GI50 (HOP-92 NSCLC): < 17.2 nM
TGI (HOP-92 NSCLC): 123 nM
GI50 (UACC-62 melanoma): < 10 nM
GI50 (SK-MEL-5 melanoma): < 10 nM
TGI (SK-MEL-5 melanoma): < 10 nM
GI50 (HL-60(TB) leukemia): < 10 nM
TGI (HL-60(TB) leukemia): < 10 nM
GI50 (DU-145 prostate): 1960 nM
TGI (DU-145 prostate): 44.4 µM
GI50 (COLO 205 colon): < 10 nM
TGI (COLO 205 colon): < 10.6 nM
GI50 (NCI-H226 lung): < 43.2 nM
TGI (NCI-H226 lung): 8.93 µM
TGI (TK-10 renal): > 45.6 µM
GI50 (NCI-H322M lung): < 23.7 nM
TGI (NCI-H322M lung): 3.6 µM
GI50 (UO-31 renal): 54.1 nM
TGI (UO-31 renal): 11.3 µM
GI50 (MALME-3M melanoma): < 10 nM
TGI (MALME-3M melanoma): < 10 nM
GI50 (SF-268 CNS): 7.21 µM
TGI (SF-268 CNS): > 56.4 µM
GI50 (A498 renal): 80 nM
TGI (A498 renal): 4.52 µM
GI50 (HOP-62 NSCLC): < 11.3 nM
TGI (HOP-62 NSCLC): 21.2 µM
GI50 (PC-3 prostate): > 35.7 µM
TGI (PC-3 prostate): > 59.5 µM
GI50 (MOLT-4 leukemia): 3.11 µM
TGI (MOLT-4 leukemia): 12.3 µM
GI50 (SR leukemia): 1100 nM
TGI (SR leukemia): 5.65 µM
GI50 (CCRF-CEM leukemia): 3.32 µM
TGI (CCRF-CEM leukemia): 12.8 µM
GI50 (MCF7 breast): 7.68 µM
TGI (MCF7 breast): 23.6 µM
GI50 (SF-295 CNS): 23.1 µM
TGI (SF-295 CNS): > 86.2 µM
GI50 (HT29 colon): < 10 nM
TGI (HT29 colon): 15 µM
GI50 (HCC-2998 colon): < 10 nM
TGI (HCC-2998 colon): < 11.9 nM
GI50 (NCI-H23 lung): < 10 nM
TGI (NCI-H23 lung): 137 nM
GI50 (U251 glioblastoma): 76 nM
TGI (U251 glioblastoma): 23.2 µM
GI50 (SN12C renal): 537 nM
TGI (SN12C renal): 46.4 µM
GI50 (KM12 colon): < 10 nM
TGI (KM12 colon): 26.1 µM
GI50 (OVCAR-5 ovarian): < 10 nM
TGI (OVCAR-5 ovarian): 25.5 µM
TGI (RXF 393 renal): 1440 nM
GI50 (OVCAR-4 ovarian): 4.87 µM
TGI (OVCAR-4 ovarian): 26.9 µM
GI50 (LOX IMVI melanoma): < 10 nM
TGI (LOX IMVI melanoma): 44.3 nM
GI50 (A549 NSCLC): 10.3 nM
TGI (A549 NSCLC): 4.68 µM
GI50 (NCI-H460 NSCLC): 3.88 µM
TGI (NCI-H460 NSCLC): > 40.9 µM
